Laboratory results: patent US5244915A, “Amico acid derivatives cyclized at the C-terminal” (Warner-Lambert Company, priority 1991, dated 1993)

How the values were obtained:
CCK B = target: T1, CCK B (Mus musculus, UniProt P56481); test: CCK receptor binding, displacement of tritiated-pentagastrin from cerebral cortical membranes (CCK B); parameters: species or system mouse (male CFLP); settings: mouse cerebral cortex membranes, 2 nM tritiated-pentagastrin
T1 construct: from tissue; host or cells: cerebral cortex of male CFLP mice (30-40 g), washed membranes
T1 sequence (P56481 1-453): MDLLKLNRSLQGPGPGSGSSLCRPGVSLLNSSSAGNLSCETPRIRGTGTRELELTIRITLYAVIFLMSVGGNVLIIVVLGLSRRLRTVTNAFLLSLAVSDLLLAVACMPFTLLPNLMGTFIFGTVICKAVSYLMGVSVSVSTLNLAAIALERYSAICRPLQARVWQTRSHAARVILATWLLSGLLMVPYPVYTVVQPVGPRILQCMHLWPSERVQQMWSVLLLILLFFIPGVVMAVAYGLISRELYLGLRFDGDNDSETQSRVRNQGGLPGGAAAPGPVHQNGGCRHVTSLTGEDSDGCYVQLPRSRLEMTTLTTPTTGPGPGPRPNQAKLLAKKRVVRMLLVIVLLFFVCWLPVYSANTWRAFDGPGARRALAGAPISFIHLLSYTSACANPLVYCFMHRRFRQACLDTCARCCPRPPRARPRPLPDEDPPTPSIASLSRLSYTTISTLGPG
Experimental: (§1) The biological activity of compounds of the present invention was evaluated employing an initial screening test which rapidly and accurately measured the binding of the tested compound to known CCK receptor sites. […] (See Hays et al, Neuropeptides 1:53-62, 1980; and Satuer et al, Science 208:1155-1156, 1980.
In this screening test, the cerebral cortices taken from male CFLP mice weighing between 30-40 g were dissected on ice, weighed, and homogenized in 10 volumes of 50 mM Tris-HCl buffer (pH 7.4 at 0°-4° C.). The resulting suspension was centrifuged, the supernate was discarded, and the pellet was washed by resuspension in Tris-HCl buffer followed by recentrifugation. The final pellet was resuspended in 20 volumes of […] buffer (pH 7.2 at 23° C.) containing 130 mM NaCl, […], […], […], 5 mg/mL bovine albumin, and bacitracin (0.25 mg/ml).
In saturation studies, cerebral cortical membranes were incubated at 23° C. for 120 minutes in a final volume of 500 μliter of Hepes incubation buffer (pH 7.2) together with 0.2-20 nM tritiated-pentagastrin (Amersham International, England).
In the displacement experiments, membranes were incubated with a single concentration (2 nM) of ligand, together with increasing concentrations (10^-11 to […]) of competitive test compound. In each case, the nonspecific binding was defined as that persisting in the presence of the unlabeled octapeptide CCK26-33 (10^-6 M).
Following incubation, radioactivity bound to membranes was separated from that free in solution by rapid filtration through Whatman GF/B filters and washed three times with 4 mL of ice cold Tris-HCl buffer. Filters from samples incubated with tritiated-pentagastrin were placed in polyethylene vials with 4 mL of scintillation cocktail, and the radioactivity was estimated by liquid scintillation spectrometry (efficiency 47-52%).
The specific binding to CCK receptor sites was defined as the total bound tritiated-pentagastrin minus the amount of tritiated-pentagastrin bound in the presence of 10^-6 octapeptide, CCK 26-33.
Saturation curves for specific tritiated-pentagastrin binding to mouse cortical membranes were analyzed by the methods of Scatchard (Ann. New York Acad. Sci. 51:660-672, 1949, and Hill (J. Phvsiol. 40:IV-VIII, 1910, to provide estimates for the maximum number of binding sites (Bmax) and the equilibrium dissociation constant (Ka).
In displacement experiments, inhibition curves were analyzed by either logit-log plots or the iterative curve fitting computer program ALLFIT (DeLean, Munson and Redbard, 1978) to provide estimates of the IC50 and nH (apparent Hill coefficient) values). (IC50 values were defined as the concentration of test compound required to produce 50% inhibition of specific binding.)
(§2) The inhibition constant (Ki) of the test compound was then calculated according to the Cheng-Prusoff equation: [formula] where [L] is the concentration of radiolabel and Ka is the equilibrium dissociation constant.

CCK A = test: CCK receptor binding (CCK A); settings: assay not described
Experimental: as §1, §2

Row | Structure (SMILES) | Ki (CCK B) [nM] | Ki (CCK A) [nM]
1 | CC1(C)[C@H]2CC[C@]1(C)[C@H](OC(=O)N[C@](C)(Cc1c[nH]c3ccccc13)C(=O)N[C@H]1Cc3ccccc3[C@@H]1O)C2 [Compound 2, Carbamic acid, [2-[(2,3-dihydro-1-hydroxy-1H-inden-2-yl)amino]-1-1H-indol-3-ylmethyl)-2-methyl-2-oxoethyl]-, 1,7,7-trimethylbicyclo-[2.2.1]hept-2-yl ester, [1S*[1α,2β[S-(trans)],4α]]-] | 111 | 5300
2 | CC1(C)[C@H]2CC[C@]1(C)[C@H](OC(=O)N[C@](C)(Cc1c[nH]c3ccccc13)C(=O)NC1CCc3ccccc3C1=O)C2 (single isomer, unassigned) [Compound 4, Carbamic acid, [1-(1H-indol-3-ylmethyl)-1 methyl-2-oxo-2-[(1,2,3,4-tetrahydro-1-oxo 2-naphthalenyl)amino]ethyl]-, 1,7,7-trimethyl-bicyclo[2.2.1]hept-2-yl ester] | 94 | 7620
3 | CC1(C)[C@H]2CC[C@]1(C)[C@H](OC(=O)N[C@](C)(Cc1c[nH]c3ccccc13)C(=O)NC1CCc3ccccc3C1=O)C2 (single isomer, unassigned) [Compound 5, Carbamic acid, [1-(1H-indol-3 ylmethyl)-1-methyl-2-oxo-2-[(1-2,3,4-tetrahydro-1-oxo-2-naphthalenyl)amino]ethyl]-, 1,7,7-trimethylbicyclo[2.2.1.1]hept-2-yl ester] | 59 | 
4 | CC1(C)[C@H]2CC[C@]1(C)[C@H](OC(=O)N[C@](C)(Cc1c[nH]c3ccccc13)C(=O)NC1c3ccccc3CC1O)C2 (stereo partly drawn) [Compound 1, Carbamic acid, [2-[(2,3-dihydro-2-hydroxy-1H-inden-1-yl)amino]-1-(1H-indol-3-ylmethyl)-1-methyl-2-oxoethyl]-, 1,7,7-trimethylbicyclo-[2.2.1]hept 2-yl ester] | 280 | 
5 | CC1(C)[C@H]2CC[C@]1(C)[C@H](OC(=O)N[C@](C)(Cc1c[nH]c3ccccc13)C(=O)N[C@@H]1Cc3ccccc3[C@H]1O)C2 [Compound 3, Carbamic acid, [2-[(2,3-dihydro 1-hydroxy-1H-inden-2-yl)amino]-1-(1H-indol-3-ylmethyl)-1-methyl-2-oxoethyl]-, 1,7,7-trimethylbicyclo-[2.2.1]hept-2-yl ester, [1S-[1α,2β[S*(1S*,2S*)],4α]]-] | 30 | 3870
6 | CC(Cc1c[nH]c2ccccc12)(NC(=O)OC1C2CC3CC(C2)CC1C3)C(=O)NC1CCc2ccccc2C1 (racemic) [Compound 7, Carbamic acid, [1-1H-indol-3-ylmethyl)-1-methyl-2-oxo-2 [(1,2,3,4-tetrahydro-2-naphthalenyl)amino]ethyl]-, tricyclo[3.3.1.1^3,7]-dec-2-yl ester, (±)-] | 330 | 
7 | CC(Cc1c[nH]c2ccccc12)(NC(=O)OC1C2CC3CC(C2)CC1C3)C(=O)NC1CCCc2ccccc21 (racemic) [Compound 6, Carbamic acid, [1-(1H-indol-3-ylmethyl)-1-methyl-2-oxo-2-[(1,2,3,4-tetrahydro-1-naphthalenyl)amino]ethyl]-, tricyclo[3.3.1.1^3,7]-dec-2-yl ester, (±)-] | 45 | 5220
8 | C[C@](Cc1c[nH]c2ccccc12)(NC(=O)OC1C2CC3CC(C2)CC1C3)C(=O)N1CCc2ccccc2C1 (stereo partly drawn) [Compound 8, Carbamic acid, [1-(1H-indol-3-ylmethyl)-1-methyl-2-oxo-2-(1,2,3,4-tetrahydro-2-isoquinolinyl)ethyl]-, tricyclo[3.3.1.1^3.7]-dec-2-yl ester, (R)-] | 450 | 
